What was measured:
[1] = test system: patient diagnosed with primary hypersomnia; test: Multidimensional Fatigue Inventory (MFI) in hypersomnia patients; type: in vivo, human; set-up: key: MFI subscale score; lower scores indicate improvement
Procedure: In some embodiments, the subject having hypersomnia is assessed using the Multidimensional Fatigue Inventory (MFI). The MFI is typically a 20-item scale designed to evaluate five dimensions of fatigue. In some embodiments, a total MFI score is calculated. In some embodiments, the MFI can include one or more scales (e.g., 1, 2, 3, 4, 5, 6, 7, 8, or more scales). In some embodiments, the MFI scales can include, e.g., a General Fatigue Scale, a Physical Activity Scale, a Reduced Activity Scale, a Reduced Motivation Scale, or a Mental Fatigue Scale. Generally, in MFI lower scores indicate improvements in the subject's […].
(§1) The patient was selected for PTZ treatments based on a clinical diagnosis of primary hypersomnia and the presence of an elevated level of an endogenous positive GABAA receptor allosteric modulator in the cerebrospinal fluid (CSF) of the subject relative to the CSF of a subject not having hypersomnia. The patient's sleepiness was scored according to the Epworth Sleepiness Scale (ESS), the Functional Outcomes of Sleep Questionnaire (FOSQ) Total Score, and the Multidimensional Fatigue Inventory (MFI). Additional clinical parameters recorded during the course of PTZ treatment included the Clinical Global Impression of Severity (CGI-S), the Clinical Global Impression of Change (CGI-C), the Beck Depression Inventory (BDI-II) Total Score and the patient's reported feelings of fogginess.
(§2) PTZ was orally administered to the patient twice daily at doses of 100 mg in liquid form in a TANG™ brand juice.
(§3) The patients were selected for PTZ treatments and evaluated as described in Example 2. PTZ was orally administered in liquid form in a TANG™ brand juice.
(§4) The patients were first evaluated while receiving flumazenil (Patient 1) or clarithromycin (Patient 2). […] A second evaluation of the two patients was performed at the end of the wash-out period. PTZ was then administered to Patient 1 for two weeks. During the first week, PTZ was administered to Patient 1 twice daily at doses of 100 mg, and during the second week PTZ was administered to Patient 1 at doses of 200 mg. PTZ was administered to Patient 2 for one week twice daily at doses of 100 mg. The patients were evaluated at the end of the first week (Patients 1 and 2) and at the end of the second week (Patient 1).

[2] = test system: patient diagnosed with primary hypersomnia; test: Epworth Sleepiness Scale (ESS) in hypersomnia patients; type: in vivo, human
From the text: In some embodiments, total scores in the ESS range from 0 to 24. A skilled artisan will recognize that in the ESS scores at the lower end (towards 0) of the scale indicate an improvement in a subject's hypersomnia. In some embodiments, scores of 10 and above indicate significant hypersomnia symptoms in a subject. In some embodiments, changes of 2-3 points in the ESS indicate clinically meaningful improvements in the subject's hypersomnia.
as §1, §2, §3, §4

[3] = test system: patient diagnosed with primary hypersomnia; test: Clinical Global Impression of Severity (CGI-S) in hypersomnia patients; type: in vivo, human
Procedure: In some embodiments, the subject having hypersomnia is assessed using the Clinical Global Impression of Severity (CGI-S).
as §1, §2, §3, §4

[4] = test system: patient diagnosed with primary hypersomnia; test: Functional Outcomes of Sleep Questionnaire (FOSQ) in hypersomnia patients; type: in vivo, human; set-up: key to FOSQ General Productivity Score / FOSQ Social Outcome Score / FOSQ Activity Level Score / FOSQ Vigilance Score / FOSQ Intimate Relationships and Sexual Activity Score: subscale score ~1-4; higher = improvement; key to Functional Outcomes of Sleep Questionnaire (FOSQ) Total Score: total score ~5-20; higher = improvement
Procedure: In some embodiments, the subject having hypersomnia is assessed using the Functional Outcomes of Sleep Questionnaire (FOSQ). The FOSQ can, e.g., be administered to the subject by asking the subject to rate the impact of a sleep disorder on a scale on activities within certain categories. In some embodiments, an FOSQ total score is determined. In some embodiments, the FOSQ total score is determined from one or more subscale scores (e.g., 1, 2, 3, 4, 5, 6, 7, 8, or more subscale scores). In some embodiments, the FOSQ subscale scores can include, e.g., a General Productivity Score, a Social Outcome Score, an Activity Level Score, a Vigilance Score, or an Intimate Relationship and Sexual Activity Score. A skilled artisan will recognize that higher FOSQ total or subscale scores indicate an improvement in the subject's hypersomnia. In some embodiments, FOSQ total scores can range from about 5 to 20. In some embodiments, FOSQ subscale scores can range from about 1 to 4.
as §1, §2, §3, §4

[5] = test system: patient diagnosed with primary hypersomnia; test: Beck Depression Inventory (BDI-II) in hypersomnia patients; type: in vivo, human
Procedure: In some embodiments, the subject having hypersomnia is assessed using the Beck Depression Inventory (current version, published in 1996, is the BDI-II). In some embodiments, a BDI-II total score is determined. In some embodiments, a BDI-II total score of 0-13 indicates minimal depression; a score of 14-19 indicates mild depression; a score of 20-28 indicates moderate depression; and a score of 29-63 indicates severe depression.
as §1, §2, §3, §4

[6] = test system: patient diagnosed with primary hypersomnia; test: Clinical Global Impression of Change (CGI-C) in hypersomnia patients; type: in vivo, human; details: oral
Procedure: In some embodiments, the subject having hypersomnia is assessed using the Clinical Global Impression of Change (CGI-C).
as §1, §2, §3, §4

[7] = test system: patient diagnosed with primary hypersomnia; test: Self-reported fogginess score in hypersomnia patients; type: in vivo, human; details: oral, average of daily scores over one week
Procedure: In some embodiments, the subject having hypersomnia is assessed using a self-reported fogginess score. It is believed that the fogginess score can be used to evaluate a subject's clarity of thinking, which can reflect the subject's cognitive state. In some embodiments, the subject is asked how foggy the subject feels, e.g., since waking up in the morning or since midday. Scoring in a self-reported fogginess score can, e.g., be scored on a scale from 0 to 3.
as §1, §2, §3, §4

[8] = test system: human patients diagnosed with primary hypersomnia; test: Overall comparison of treatments of hypersomnia in human patients; type: in vivo; details: Patients 1 and 2 diagnosed with primary hypersomnia
Procedure: This example describes the treatment of hypersomnia by administering PTZ to two human patients having hypersomnia who were treated with flumazenil (Patient 1) or clarithromycin (Patient 2) prior to the administration of PTZ.
as §3, §4

[9] = Patient 2, before PTZ treatment, on clarithromycin
[10] = Patient 1, before PTZ treatment, on flumazenil
[11] = Patient 1 (patient of Example 2), after 1 week on PTZ 100 mg twice daily, oral
[12] = Patient 1, after 2 weeks on PTZ (200 mg twice daily in 2nd week), oral
[13] = Patient 2, after 1 week on PTZ 100 mg twice daily, oral
[14] = Patient of Example 2, after one week of PTZ treatment vs before treatment
[15] = Patient 1 (patient of Example 2), after 1 week on PTZ 100 mg twice daily
[16] = Patient 1, after 2 weeks on PTZ (200 mg twice daily in 2nd week)
[17] = Patient 2, after 1 week on PTZ 100 mg twice daily

Structure (SMILES): CC[C@H]1OC(=O)[C@H](C)[C@@H](O[C@H]2C[C@@](C)(OC)[C@@H](O)[C@H](C)O2)[C@H](C)[C@@H](O[C@@H]2O[C@H](C)C[C@H](N(C)C)[C@H]2O)[C@](C)(OC)C[C@@H](C)C(=O)[C@H](C)[C@@H](O)[C@]1(C)O [Clarithromycin, clarithromycin]
- Multidimensional Fatigue Inventory (MFI) General Fatigue Scale [1, 9]: 17
- Multidimensional Fatigue Inventory (MFI) Mental Fatigue Scale [1, 9]: 9
- Multidimensional Fatigue Inventory (MFI) Physical Fatigue Scale [1, 9]: 13
- Multidimensional Fatigue Inventory (MFI) Reduced Activity Scale [1, 9]: 9
- Multidimensional Fatigue Inventory (MFI) Reduced Motivation Scale [1, 9]: 13
- Epworth Sleepiness Scale (ESS) Total Score [2, 9]: 8
- Clinical Global Impression of Severity (CGI-S) [3, 9]: 4
- FOSQ Activity Level Score [4, 9]: 2.3
- FOSQ General Productivity Score [4, 9]: 3.4
- FOSQ Intimate Relationships and Sexual Activity Score [4, 9]: 4.0
- FOSQ Social Outcome Score [4, 9]: 3.0
- FOSQ Vigilance Score [4, 9]: 2.1
- Functional Outcomes of Sleep Questionnaire (FOSQ) Total Score [4, 9]: 15
- Beck Depression Inventory (BDI-II) Total Score [5, 9]: 0

Structure (SMILES): CCOC(=O)c1ncn2c1CN(C)C(=O)c1cc(F)ccc1-2 [Flumazenil, flumazenil]
- Multidimensional Fatigue Inventory (MFI) General Fatigue Scale [1, 10]: 19
- Multidimensional Fatigue Inventory (MFI) Mental Fatigue Scale [1, 10]: 16
- Multidimensional Fatigue Inventory (MFI) Physical Fatigue Scale [1, 10]: 19
- Multidimensional Fatigue Inventory (MFI) Reduced Activity Scale [1, 10]: 19
- Multidimensional Fatigue Inventory (MFI) Reduced Motivation Scale [1, 10]: 12
- Epworth Sleepiness Scale (ESS) Total Score [2, 10]: 12
- Clinical Global Impression of Severity (CGI-S) [3, 10]: 6
- FOSQ Activity Level Score [4, 10]: 1.4
- FOSQ General Productivity Score [4, 10]: 2.4
- FOSQ Intimate Relationships and Sexual Activity Score [4, 10]: 1.0
- FOSQ Social Outcome Score [4, 10]: 3.0
- FOSQ Vigilance Score [4, 10]: 2.3
- Functional Outcomes of Sleep Questionnaire (FOSQ) Total Score [4, 10]: 10
- Beck Depression Inventory (BDI-II) Total Score [5, 10]: 16

Structure (SMILES): C1CCc2nnnn2CC1 [PTZ, pentylenetetrazol]
- Multidimensional Fatigue Inventory (MFI) General Fatigue Scale [1, 11]: 18
- Multidimensional Fatigue Inventory (MFI) Mental Fatigue Scale [1, 11]: 7
- Multidimensional Fatigue Inventory (MFI) Physical Fatigue Scale [1, 11]: 14
- Multidimensional Fatigue Inventory (MFI) Reduced Activity Scale [1, 11]: 16
- Multidimensional Fatigue Inventory (MFI) Reduced Motivation Scale [1, 11]: 9
- Multidimensional Fatigue Inventory (MFI) General Fatigue Scale [1, 12]: 15
- Multidimensional Fatigue Inventory (MFI) Mental Fatigue Scale [1, 12]: 8
- Multidimensional Fatigue Inventory (MFI) Physical Fatigue Scale [1, 12]: 14
- Multidimensional Fatigue Inventory (MFI) Reduced Activity Scale [1, 12]: 16
- Multidimensional Fatigue Inventory (MFI) Reduced Motivation Scale [1, 12]: 11
- Multidimensional Fatigue Inventory (MFI) General Fatigue Scale [1, 13]: 13
- Multidimensional Fatigue Inventory (MFI) Mental Fatigue Scale [1, 13]: 6
- Multidimensional Fatigue Inventory (MFI) Physical Fatigue Scale [1, 13]: 7
- Multidimensional Fatigue Inventory (MFI) Reduced Activity Scale [1, 13]: 6
- Multidimensional Fatigue Inventory (MFI) Reduced Motivation Scale [1, 13]: 7
- Epworth Sleepiness Scale (ESS) Total Score [2, 11]: 13
- Epworth Sleepiness Scale (ESS) Total Score [2, 12]: 9
- Epworth Sleepiness Scale (ESS) Total Score [2, 13]: 8
- ESS Total Score decrease [2, 14]: 6 points
- Clinical Global Impression of Change (CGI-C) [6, 15]: 3
- Clinical Global Impression of Change (CGI-C) [6, 16]: 2
- Clinical Global Impression of Change (CGI-C) [6, 17]: 2
- Clinical Global Impression of Severity (CGI-S) [3, 11]: 5
- Clinical Global Impression of Severity (CGI-S) [3, 12]: 4
- Clinical Global Impression of Severity (CGI-S) [3, 13]: 3
- FOSQ Activity Level Score [4, 11]: 2.9
- FOSQ General Productivity Score [4, 11]: 3.3
- FOSQ Intimate Relationships and Sexual Activity Score [4, 11]: 2.0
- FOSQ Social Outcome Score [4, 11]: 3.0
- FOSQ Vigilance Score [4, 11]: 3.1
- Functional Outcomes of Sleep Questionnaire (FOSQ) Total Score [4, 11]: 14.5
- FOSQ Activity Level Score [4, 12]: 2.9
- FOSQ General Productivity Score [4, 12]: 3.7
- FOSQ Intimate Relationships and Sexual Activity Score [4, 12]: 3.0
- FOSQ Social Outcome Score [4, 12]: 3.5
- FOSQ Vigilance Score [4, 12]: 3.7
- Functional Outcomes of Sleep Questionnaire (FOSQ) Total Score [4, 12]: 17.0
- FOSQ Activity Level Score [4, 13]: 3.4
- FOSQ General Productivity Score [4, 13]: 3.4
- FOSQ Intimate Relationships and Sexual Activity Score [4, 13]: 4.0
- FOSQ Social Outcome Score [4, 13]: 3.0
- FOSQ Vigilance Score [4, 13]: 2.9
- Functional Outcomes of Sleep Questionnaire (FOSQ) Total Score [4, 13]: 16.5
- FOSQ Total Score increase [4, 14]: 8 points
- How foggy have you felt since midday? [7, 15]: 0.1
- How foggy have you felt since waking up this morning? [7, 15]: 1.1
- How foggy have you felt since midday? [7, 16]: 0.7
- How foggy have you felt since waking up this morning? [7, 16]: 1.0
- How foggy have you felt since midday? [7, 17]: 1.2
- How foggy have you felt since waking up this morning? [7, 17]: 2.1
- Beck Depression Inventory (BDI-II) Total Score [5, 11]: 8
- Beck Depression Inventory (BDI-II) Total Score [5, 12]: 5
- Beck Depression Inventory (BDI-II) Total Score [5, 13]: 0
- Efficacy in the treatment of hypersomnia relative to flumazenil and clarithromycin [8]: superior efficacy

Source: US10688103B2, “Methods for treating hypersomnia” (BALANCE THERAPEUTICS, INC., priority 2014, dated 2020)
